Like-named read-outs stand apart in the source and are kept apart here.
Columns and labels:
AChE [1] = biological target: T1, AChE (Homo sapiens, UniProt P22303); conditions: cited from earlier work
T1 construct: purchased Sigma Chemical Co., Madrid, Spain

AChE [2] = biological target: T1, AChE; assay: AChE inhibition in presence of the competitive inhibitor JTE-907 (cooperative activities); type: biochemical; parameters: key to ΔISC035 (combination minus SC035 alone): difference in % AChE inhibition (combination minus SC035 alone); conditions: for Effect of combining with JTE-907 on AChE inhibition: sum of activities with JTE-907
Experimental: (§1) The method was adapted from Ellman et al.[47] The assay solution consisted of 0.1 M phosphate buffer pH 8, […] 5,5′-dithiobis(2-nitrobenzoic acid) (DTNB, Ellman’s reagent), 0.05 unit/ml AChE (Sigma Chemical Co., Madrid, Spain, Cholinesterase, acetyl human recombinant), and […] acetylthiocholine iodide as the substrate of the enzymatic reaction. The compounds tested were added to the assay solution and the absorbance changes at 412 nm were recorded for 5 min with a UV/Vis Microplate and cuvette Spectrophotometer, Thermo Electron Type, Multiskan Spectrum. The reaction rates were compared, and the per cent inhibition due to the presence of test compounds was calculated. […] All the experiments were performed in triplicate.
Clearly, both compounds bind to AChE at an allosteric site. […] If our hypothesis is right, the binding of VP2.33 and SC035 to the allosteric site 3 in presence of JTE-907 should show a cooperative behaviour in terms of inhibition of the AChE.

[3] = biological target: T2, AChE (Cholinesterase, acetyl human recombinant) (Homo sapiens, UniProt P22303); assay: biochemical; type: biochemical
T2 construct: purchased Sigma Chemical Co., Madrid, Spain
T2 sequence (P22303 32-614): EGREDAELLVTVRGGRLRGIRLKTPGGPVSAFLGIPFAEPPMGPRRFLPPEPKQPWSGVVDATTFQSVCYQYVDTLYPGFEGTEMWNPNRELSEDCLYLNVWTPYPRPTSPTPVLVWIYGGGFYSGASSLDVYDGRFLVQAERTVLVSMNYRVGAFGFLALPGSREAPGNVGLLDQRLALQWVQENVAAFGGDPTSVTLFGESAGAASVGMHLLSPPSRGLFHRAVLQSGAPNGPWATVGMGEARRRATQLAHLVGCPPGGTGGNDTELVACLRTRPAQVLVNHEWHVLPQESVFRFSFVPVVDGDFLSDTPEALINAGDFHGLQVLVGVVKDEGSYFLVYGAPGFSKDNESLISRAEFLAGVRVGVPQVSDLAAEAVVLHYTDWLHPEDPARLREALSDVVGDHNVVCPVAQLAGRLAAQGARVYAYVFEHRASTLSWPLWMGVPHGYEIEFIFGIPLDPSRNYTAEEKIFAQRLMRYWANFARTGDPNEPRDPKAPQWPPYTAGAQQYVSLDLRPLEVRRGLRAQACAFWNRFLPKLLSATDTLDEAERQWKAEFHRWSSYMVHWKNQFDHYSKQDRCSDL
Experimental: as §1

AChE [4] = biological target: T1, AChE; assay: Kinetic study of AChE inhibition (Lineweaver-Burk); type: biochemical; conditions: Lineweaver-Burk plots, four substrate and three inhibitor concentrations
Experimental: To investigate the mechanism of action of the compounds on AChE, a kinetic analysis was performed. The experiments were carried out using combinations of four substrate concentrations, and three inhibitor concentrations. Double-reciprocal Lineweaver–Burk plotting of the data obtained, in which each point is mean of three different experiments, were analysed.
Mixed inhibitors cause intersects above or below the x-axis.

[5] = Table S1 first grid, JTE907 2.5 μM + SC035 25 μM
[6] = Table S1 first grid, JTE907 5 μM + SC035 50 μM
[7] = Table S1 first grid, JTE907 20 μM + SC035 25 μM
[8] = Table S1 first grid, JTE907 20 μM + SC035 50 μM
[9] = Table S1 second grid, SC035 25 μM + JTE907 5 μM
[10] = Table S1 second grid, SC035 50 μM + JTE907 2.5 μM
[11] = Table S1 second grid, SC035 50 μM + JTE907 5 μM
[12] = Table S1 second grid, SC035 70 μM + JTE907 2.5 μM
[13] = Table S1 second grid, SC035 70 μM + JTE907 5 μM
[14] = Table 4, compounds selected to bind site 3, read-out: IC50
[15] = compound alone, read-out: Individual inhibition of AChE

T1 sequence (P22303 32-614): as above

For CCCCCOc1c(OC)ccc2cc(C(=O)NCc3ccc4c(c3)OCO4)c(=O)[nH]c12 [JTE907, reference compound], the “Mechanism of AChE inhibition” value (AChE [1]) is listed as “pure competitive inhibitor”, the “ΔIJTE907 (combination minus JTE907 alone)” value (AChE [2]; JTE907 5 μM + VP2.33 25 μM) is listed as “ΔIJTE907 = 19.86” and the “ΔIJTE907 (combination minus JTE907 alone)” value (AChE [2]; JTE907 5 μM + VP2.33 50 μM) is listed as “ΔIJTE907 = 44.53”. The “ΔIJTE907 (combination minus JTE907 alone)” value (AChE [2]; JTE907 10 μM + VP2.33 25 μM) was “ΔIJTE907 = 11.79”, the “ΔIJTE907 (combination minus JTE907 alone)” value (AChE [2]; JTE907 20 μM + VP2.33 25 μM) was “ΔIJTE907 = 15.66” and the “ΔIJTE907 (combination minus JTE907 alone)” value (AChE [2]; JTE907 20 μM + VP2.33 50 μM) was “ΔIJTE907 = 24.96”. For the same compound, the “ΔIJTE907 (combination minus JTE907 alone)” value (AChE [2]; [5]) was 21,5, the “ΔIJTE907 (combination minus JTE907 alone)” value (AChE [2]; Table S1 first grid, JTE907 2.5 μM + SC035 50 μM) was 33 and the “ΔIJTE907 (combination minus JTE907 alone)” value (AChE [2]; [6]) was 19,52. The “ΔIJTE907 (combination minus JTE907 alone)” value (AChE [2]; [7]) was -3,46, the “ΔIJTE907 (combination minus JTE907 alone)” value (AChE [2]; [8]) was -3,34 and the “ΔIJTE907 (combination minus JTE907 alone)” value (AChE [2]; Table S1 second grid, SC035 25 μM + JTE907 2.5 μM) was 18,41. The “ΔIJTE907 (combination minus JTE907 alone)” value (AChE [2]; [9]) was 13,78, the “ΔIJTE907 (combination minus JTE907 alone)” value (AChE [2]; [10]) was 33,91 and the “ΔIJTE907 (combination minus JTE907 alone)” value (AChE [2]; [11]) was 17,2. For the same compound, the “ΔIJTE907 (combination minus JTE907 alone)” value (AChE [2]; [12]) was 48,02, the “ΔIJTE907 (combination minus JTE907 alone)” value (AChE [2]; [13]) was 20,33 and the “Individual inhibition of AChE” value (AChE [2]; compound alone, 2.5 μM) was 14,09±2,85%. For the same compound, the “Individual inhibition of AChE” value (AChE [2]; compound alone, 5 μM) was 34,22±1,13% and JTE907 5μM (30.34 ± 2.85%), the “Individual inhibition of AChE” value (AChE [2]; compound alone, 10 μM) was “JTE907 10 μM (56.78 ± 1.35%)” and the “Individual inhibition of AChE” value (AChE [2]; compound alone, 20 μM) was 65,78±2,37% and JTE907 20 μM (65.10 ± 2.37%).
For O=C(/C=C/c1ccc(O)c(O)c1)O[C@H](Cc1ccc(O)c(O)c1)C(=O)O [Rosmarinic acid, reference compound], the IC50 ([3]; IC50 (μM), Table 3, compounds selected to bind site 2) was > 10 µM and the inhibition at 10 µM ([3]; read-out: % of inhibition at 10 μM) was 26%.
For O=C(CN1CCCC1)NN1c2ccccc2Sc2ccc(Cl)cc21 [SC035], the “Mechanism of inhibition versus substrate ACh” value (AChE [4]) was “non-competitive inhibition”, the IC50 [3, 14] was 42.1 ± 4.3 µM and the “ΔISC035 (combination minus SC035 alone)” value (AChE [2]; [5]) was -6,74. The “ΔISC035 (combination minus SC035 alone)” value (AChE [2]; Table S1 first grid, JTE907 5 μM + SC035 25 μM) was 2,26, the “ΔISC035 (combination minus SC035 alone)” value (AChE [2]; [6]) was -4,98 and the “ΔISC035 (combination minus SC035 alone)” value (AChE [2]; [7]) was 19,99. The “ΔISC035 (combination minus SC035 alone)” value (AChE [2]; [8]) was 3,72, the “ΔISC035 (combination minus SC035 alone)” value (AChE [2]; [9]) was 5,67 and the “ΔISC035 (combination minus SC035 alone)” value (AChE [2]; [10]) was -10,72. For the same compound, the “ΔISC035 (combination minus SC035 alone)” value (AChE [2]; [11]) was -7,3, the “ΔISC035 (combination minus SC035 alone)” value (AChE [2]; [12]) was -13,21 and the “ΔISC035 (combination minus SC035 alone)” value (AChE [2]; [13]) was -20,77. It also gave an inhibition at 25 µM (AChE [2]; [15]) of 42.3%, an inhibition at 50 µM (AChE [2]; [15]) of 58.7% and an inhibition at 70 µM (AChE [2]; compound alone, 70 μM, read-out: Individual inhibition of AChE) of 75.3%. The “Effect of combining with JTE-907 on AChE inhibition” value (AChE [2]) was “no addition of activities”.
With NC1=NC(=O)C2N=C(c3ccccc3)C(c3ccccc3)=NC2=N1 (stereo not drawn) [SC251] the “Mechanism of inhibition versus substrate ACh” value (AChE [4]) was “non-competitive-mixed” and the IC50 ([3]; Table 3, compounds selected to bind site 2, read-out: IC50) was 2.76 ± 0.25 µM.
In the case of OCCNc1nc(-c2cccc3ccccc23)[n+](-c2ccccc2)s1 [VP2.33], the “Mechanism of inhibition versus substrate ACh” value (AChE [4]) is reported as “non-competitive inhibition”, the IC50 [3, 14] is reported as 49.6 ± 1.5 µM and the “ΔIVP2.33 (combination minus VP2.33 alone)” value (AChE [2]; JTE907 5 μM + VP2.33 50 μM) is reported as “ΔIVP2.33 = 17.16”. For the same compound, the “ΔIVP2.33 (combination minus VP2.33 alone)” value (AChE [2]; JTE907 10 μM + VP2.33 25 μM) was “ΔIVP2.33 = 41.29”, the “ΔIVP2.33 (combination minus VP2.33 alone)” value (AChE [2]; JTE907 10 μM + VP2.33 50 μM) was “ΔIVP2.33 = 27.71” and the “ΔIVP2.33 (combination minus VP2.33 alone)” value (AChE [2]; JTE907 20 μM + VP2.33 25 μM) was “ΔIVP2.33 = 53.48”. For the same compound, the “ΔIVP2.33 (combination minus VP2.33 alone)” value (AChE [2]; JTE907 20 μM + VP2.33 50 μM) was “ΔIVP2.33 = 32.35”, the inhibition at 25 µM (AChE [2]; [15]) was 27.3% and the inhibition at 50 µM (AChE [2]; [15]) was 57.7%. The “Effect of combining with JTE-907 on AChE inhibition” value (AChE [2]) was “an effect of cooperative activities”.

Reference: article PMC6010107, “Identification of new allosteric sites and modulators of AChE through computational and experimental tools” (Journal of Enzyme Inhibition and Medicinal Chemistry, 2018)
